Source: PubChem BioAssay AID330 (DTP/NCI, 2004)
Where “and” joins values, the source holds several entries; their conditions need not be identical. Equal values may be shown once. Toxic doses and inconclusive results are not listed.

System: P388 leukemia ip, CD2F1 mice, survival T/C
Test: NCI In Vivo Anticancer Drug Screen. Data for tumor model P388 Leukemia (intraperitoneal) in CD2F1 (CDF1) mice
Conditions: endpoint: median survival time, higher = longer survival
Summary of the method: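 Mice carrying the transplanted tumor received test compound or vehicle. Survival was recorded in each group, and the value is the treated-group measurement divided by that of the vehicle-treated control group.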

[1] = dose: 100.0 mg/kg/injection, schedule: Q04DX002 (ip), vehicle: Klucel (hydroxypropylcellulose) (HPC)

CC[C@](O)(C(=O)O)c1cc2n(c(=O)c1CO)Cc1cc3ccccc3nc1-2
T/C (dose: 0.5 mg/kg/injection, schedule: Q01DX009 (ip), vehicle: saline with Tween-80): 118 % of control | T/C (dose: 0.5 mg/kg/injection, schedule: Q01DX009 (ip), vehicle: water): 120 % of control | T/C (dose: 1.57 mg/kg/injection, schedule: Q04DX003 (ip), vehicle: other): 116 % of control and 119 % of control | T/C (dose: 2.0 mg/kg/injection, schedule: Q01DX009 (ip), vehicle: saline sonified): 163 % of control | T/C (dose: 2.0 mg/kg/injection, schedule: Q01DX009 (ip), vehicle: saline with Tween-80): 159 % of control | T/C (dose: 2.0 mg/kg/injection, schedule: Q01DX009 (ip), vehicle: water): 158 % of control | T/C (dose: 2.5 mg/kg/injection, schedule: Q04DX003 (ip), vehicle: water): 120 % of control | T/C (dose: 4.0 mg/kg/injection, schedule: Q01DX009 (ip), vehicle: saline sonified): 100 % of control | T/C (dose: 4.0 mg/kg/injection, schedule: Q01DX009 (ip), vehicle: saline with Tween-80): 195 % of control | T/C (dose: 4.0 mg/kg/injection, schedule: Q01DX009 (ip), vehicle: water): 207 % of control | T/C (dose: 5.0 mg/kg/injection, schedule: Q04DX003 (ip), vehicle: water): 111 % of control | T/C (dose: 6.25 mg/kg/injection, schedule: Q04DX003 (ip), vehicle: other): 156 % of control and 159 % of control | T/C (dose: 6.25 mg/kg/injection, schedule: Q04DX003 (ip), vehicle: water): 154 % of control | T/C (dose: 8.0 mg/kg/injection, schedule: Q01DX009 (ip), vehicle: water): 100 % of control | T/C (dose: 9.72 mg/kg/injection, schedule: Q04DX002 (ip), vehicle: saline): 108 % of control | T/C (dose: 10.0 mg/kg/injection, schedule: Q04DX003 (ip), vehicle: water): 155 % of control | T/C (dose: 10.8 mg/kg/injection, schedule: Q04DX002 (ip), vehicle: saline): 160 % of control | T/C (dose: 12.5 mg/kg/injection, schedule: Q04DX003 (ip), vehicle: other): 106 % of control and 113 % of control | T/C (dose: 13.0 mg/kg/injection, schedule: Q04DX003 (ip), vehicle: saline): 185 % of control | T/C (dose: 18.0 mg/kg/injection, schedule: Q04DX002 (ip), vehicle: saline): 159 % of control | T/C (dose: 20.0 mg/kg/injection, schedule: Q04DX003 (ip), vehicle: water): 178 % of control and 220 % of control | T/C (dose: 21.6 mg/kg/injection, schedule: Q04DX003 (ip), vehicle: saline): 217 % of control | T/C (dose: 25.0 mg/kg/injection, schedule: Q04DX003 (ip), vehicle: other): 98 % of control and 90 % of control | T/C (dose: 25.0 mg/kg/injection, schedule: Q04DX003 (ip), vehicle: water): 154 % of control | T/C (dose: 30.0 mg/kg/injection, schedule: Q04DX002 (ip), vehicle: saline): 177 % of control | T/C (dose: 36.0 mg/kg/injection, schedule: Q04DX003 (ip), vehicle: saline): 233 % of control | T/C (dose: 40.0 mg/kg/injection, schedule: Q04DX003 (ip), vehicle: water): 212 % of control and 94 % of control | T/C (dose: 45.0 mg/kg/injection, schedule: Q04DX002 (ip), vehicle: saline): 157 % of control and 196 % of control | T/C (dose: 50.0 mg/kg/injection, schedule: Q04DX002 (ip), vehicle: saline): 183 % of control | T/C (dose: 60.0 mg/kg/injection, schedule: Q04DX003 (ip), vehicle: saline): 93 % of control | T/C (dose: 83.3 mg/kg/injection, schedule: Q04DX002 (ip), vehicle: saline): 91 % of control | T/C (dose: 128.0 mg/kg/injection, schedule: Q04DX003 (ip), vehicle: saline): 58 % of control

Cn1c(C2(C)C(=O)NC(=O)c3cnccc32)cc2ccccc21 (stereo not drawn)
T/C [1]: 103 % of control | T/C (dose: 200.0 mg/kg/injection, schedule: Q04DX002 (ip), vehicle: Klucel (hydroxypropylcellulose) (HPC)): 92 % of control

CN1CCC2(CC1)OCCCO2
T/C (dose: 25.0 mg/kg/injection, schedule: Q01DX005 (ip), vehicle: saline with Tween-80): 102 % of control | T/C (dose: 50.0 mg/kg/injection, schedule: Q01DX005 (ip), vehicle: saline with Tween-80): 94 % of control | T/C (dose: 50.0 mg/kg/injection, schedule: Q01DX005 (ip), vehicle: saline): 99 % of control | T/C (dose: 75.0 mg/kg/injection, schedule: Q01DX001 (ip), vehicle: saline with Tween-80): 105 % of control | T/C (dose: 100.0 mg/kg/injection, schedule: Q01DX005 (ip), vehicle: saline with Tween-80): 100 % of control and 88 % of control | T/C (dose: 100.0 mg/kg/injection, schedule: Q01DX005 (ip), vehicle: saline): 96 % of control | T/C (dose: 125.0 mg/kg/injection, schedule: Q01DX001 (ip), vehicle: saline with Tween-80): 101 % of control | T/C (dose: 200.0 mg/kg/injection, schedule: Q01DX005 (ip), vehicle: saline): 102 % of control | T/C (dose: 250.0 mg/kg/injection, schedule: Q01DX001 (ip), vehicle: saline with Tween-80): 93 % of control

COC1CCC(CO)O1 (stereo not drawn)
T/C (dose: 50.0 mg/kg/injection, schedule: Q01DX009 (ip), vehicle: suspension in saline): 100 % of control | T/C (dose: 100.0 mg/kg/injection, schedule: Q01DX009 (ip), vehicle: suspension in saline): 108 % of control | T/C (dose: 200.0 mg/kg/injection, schedule: Q01DX009 (ip), vehicle: suspension in saline): 102 % of control

Cc1cc(=O)n2c(-c3ccc(Cl)cc3)csc2n1
T/C (dose: 25.0 mg/kg/injection, schedule: Q04DX002 (ip), vehicle: Klucel (hydroxypropylcellulose) (HPC)): 90 % of control | T/C (dose: 50.0 mg/kg/injection, schedule: Q04DX002 (ip), vehicle: Klucel (hydroxypropylcellulose) (HPC)): 101 % of control | T/C [1]: 102 % of control

Cn1c(=O)c2c(ncn2C)n(C)c1=O.[Cl][Pt]([Cl])[Cl]
T/C (dose: 6.25 mg/kg/injection, schedule: Q01DX005 (ip), vehicle: water): 116 % of control | T/C (dose: 12.5 mg/kg/injection, schedule: Q01DX005 (ip), vehicle: water): 116 % of control and 124 % of control | T/C (dose: 25.0 mg/kg/injection, schedule: Q01DX005 (ip), vehicle: water): 120 % of control | T/C (dose: 50.0 mg/kg/injection, schedule: Q01DX005 (ip), vehicle: water): 121 % of control | T/C (dose: 100.0 mg/kg/injection, schedule: Q01DX005 (ip), vehicle: water): 121 % of control

O/N=C/c1c(Cl)nc2sccn12
T/C (dose: 50.0 mg/kg/injection, schedule: Q01DX001 (ip), vehicle: Klucel (hydroxypropylcellulose) (HPC)): 100 % of control | T/C (dose: 100.0 mg/kg/injection, schedule: Q01DX001 (ip), vehicle: Klucel (hydroxypropylcellulose) (HPC)): 100 % of control and 91 % of control | T/C (dose: 200.0 mg/kg/injection, schedule: Q01DX001 (ip), vehicle: Klucel (hydroxypropylcellulose) (HPC)): 89 % of control and 97 % of control

Clc1ccc(C[P+](c2ccccc2)(c2ccccc2)c2ccccc2)c(Cl)c1
T/C (dose: 1.25 mg/kg/injection, schedule: Q01DX009 (ip), vehicle: saline sonified): 109 % of control | T/C (dose: 2.5 mg/kg/injection, schedule: Q01DX009 (ip), vehicle: saline sonified): 109 % of control | T/C (dose: 5.0 mg/kg/injection, schedule: Q01DX009 (ip), vehicle: saline sonified): 118 % of control

C=CCn1nnc(N)n1
T/C (dose: 100.0 mg/kg/injection, schedule: Q04DX003 (ip), vehicle: Klucel (hydroxypropylcellulose) (HPC)): 111 % of control | T/C (dose: 200.0 mg/kg/injection, schedule: Q04DX003 (ip), vehicle: Klucel (hydroxypropylcellulose) (HPC)): 109 % of control | T/C (dose: 400.0 mg/kg/injection, schedule: Q04DX003 (ip), vehicle: Klucel (hydroxypropylcellulose) (HPC)): 105 % of control

O=P1(O)CC2=C(CC=CC2)C1
T/C (dose: 50.0 mg/kg/injection, schedule: Q01DX009 (ip), vehicle: saline with Tween-80): 98 % of control | T/C (dose: 100.0 mg/kg/injection, schedule: Q01DX009 (ip), vehicle: saline with Tween-80): 89 % of control | T/C (dose: 200.0 mg/kg/injection, schedule: Q01DX009 (ip), vehicle: saline with Tween-80): 98 % of control

O=C(/C=C/c1ccc(F)cc1)c1ccc(Cl)cc1
T/C (dose: 100.0 mg/kg/injection, schedule: Q04DX003 (ip), vehicle: saline with Tween-80): 90 % of control | T/C (dose: 200.0 mg/kg/injection, schedule: Q04DX003 (ip), vehicle: saline with Tween-80): 86 % of control | T/C (dose: 400.0 mg/kg/injection, schedule: Q04DX003 (ip), vehicle: saline with Tween-80): 100 % of control

O=S(=O)(Nc1ccc(NS(=O)(=O)c2ccccc2)cc1)c1ccccc1
T/C (dose: 50.0 mg/kg/injection, schedule: Q04DX003 (ip), vehicle: saline): 100 % of control | T/C (dose: 100.0 mg/kg/injection, schedule: Q04DX003 (ip), vehicle: saline): 109 % of control | T/C (dose: 200.0 mg/kg/injection, schedule: Q04DX003 (ip), vehicle: saline): 100 % of control

CCN=C1C=CC(=C(c2ccc(N)cc2)c2ccc(N(CC)CC)c(C)c2)C=C1
T/C (dose: 1.56 mg/kg/injection, schedule: Q01DX005 (ip), vehicle: saline): 106 % of control | T/C (dose: 3.12 mg/kg/injection, schedule: Q01DX005 (ip), vehicle: saline): 112 % of control

Cn1c2ccccc2c2nnc(N/N=C/c3ccccn3)nc21
T/C (dose: 100.0 mg/kg/injection, schedule: Q04DX002 (ip), vehicle: saline with Tween-80): 98 % of control and 111 % of control and 113 % of control | T/C (dose: 200.0 mg/kg/injection, schedule: Q04DX002 (ip), vehicle: saline with Tween-80): 106 % of control and 113 % of control and 114 % of control | T/C (dose: 400.0 mg/kg/injection, schedule: Q04DX002 (ip), vehicle: saline with Tween-80): 106 % of control and 113 % of control | T/C (dose: 800.0 mg/kg/injection, schedule: Q04DX002 (ip), vehicle: saline with Tween-80): 104 % of control and 114 % of control
